Laboratory results reported in patent US20050049200A1, “LHRH-antagonists in the treatment of fertility disorders” (priority 1996, published 2005).
“Also recorded” adds a separate entry of the source. Where a SMILES comes first, the peptide text is derived from it. [ ]: non-standard residue; d: D form. dPhe(4-Cl) = N[C@H](Cc1ccc(Cl)cc1)C(=O)O; d2Nal = N[C@H](Cc1ccc2ccccc2c1)C(=O)O; dCit = NC(=O)NCCC[C@@H](N)C(=O)O; d3Pal = N[C@H](Cc1cccnc1)C(=O)O

Experiments:
[1] = tested on: premature LH surges; settings: short term treatment; cited from earlier work
[2] = tested on: patients undergoing COH for IVF/ICSI; experiment: Cetrorelix combined with clomifen citrate and gonadotrophins for hormonal stimulation (COH) for IVF/ICSI; assay type: in vivo; settings: for fertilization rate: ICSI
Procedure: Combination of the GnRH antagonist Cetrorelix, clomifen citrate(CC) and gonadotrophins for hormonal stimulation for IVF/ICSI. COH was started on day 2 after spontaneous menstrual bleeding using 100 mg CC per day for 5 or 7 days. The antagonist Cetrorelix (0.25 mg s.c.) was given starting on stimulation day 6 combined with either urinary hMG or recombinant FSH (3 ampoules/d) in a prospective randomized way. After two days of gonadotrophin injection, the dose was individualized. Human chorionic gonadotropin was given for ovulation induction, if at least 3 follicles were ≧17 mm in diameter. In total, 30 patients were included in the study. 15 were randomized in each group. Intra cytoplasmatic sperm injection (ICSI) was applied in each case.

[3] = tested on: pituitary / follicular growth; experiment: Animal experiments and clinical studies with Cetrorelix (unstimulated follicular growth, pituitary responsiveness); assay type: in vivo
Text: These low dosage levels present new possibilities for manipulating the time of ovulation during a normal, not exogenous gonadotropin-stimulated cycle, without affecting the viability of the growing follicle. In case of inadequate follicular growth related to treatment with LHRH-antagonists, low dose and short term administration of gonadotrophin or other trophic compounds will compensate for these effects. Subsequently, by stopping the LHRH-antagonist treatment, it is possible to let the normal ovulation occur or to induce ovulation by exogenous manipulation, if necessary. Ovulation induction was induced by the administration of standard HCG or by administration of LHRH and/or LHRH agonistic analogs. These described treatment alternatives are a departure from existing protocols, since they are possible only if preceded by treatment for LH-surge-control with an LHRH-antagonist. In animal and clinical studies with Cetrorelix it was shown that the responsiveness of the pituitary to LHRH or agonistic analogs is preserved under these conditions of treatment. Without this treatment, the pituitary cannot respond after agonistic pretreatment for LH-surge control due to receptor down-regulation. In addition, the possible use of ovulation inducing agents other than HCG results in a-reduced incidence of ovarian hyperstimulation syndrome.

[4] = tested on: patients undergoing COS/ART; experiment: Phase II clinical trial of Cetrorelix in controlled ovarian stimulation (COS/ART); assay type: in vivo
Procedure: The results of a phase II clinical trial are shown in Table I. A total of […] patients were treated. […] During multiple dosing, the mean days of Cetrorelix application is 6 days. 25 babies were born by the end of May 1996 (7 following multiple doses; 18 following single/dual doses). 238 patients were treated with Cetrorelix by subcutaneous injection of Cetrorelix […]-Lyophilisat. 134 patients were treated with multiple doses and 104 patients with single or dual doses. The multiple doses are 0.25 mg/day or higher. The single dose was 3 mg or higher. […]

[5] = all phase II patients, both regimens
[6] = multiple dosing, 3-7/14 days, phase II dose finding
[7] = single dose (1 day), phase II dose finding

For `CC(=O)N[C@H](Cc1ccc2ccccc2c1)C(=O)N[C@H](Cc1ccc(Cl)cc1)C(=O)N[C@H](Cc1cccnc1)C(=O)N[C@@H](CO)C(=O)N[C@@H](Cc1ccc(O)cc1)C(=O)N[C@H](CCCNC(N)=O)C(=O)N[C@@H](CC(C)C)C(=O)N[C@@H](CCCNC(=N)N)C(=O)N1CCC[C@H]1C(=O)N[C@H](C)C(N)=O` [Cetrorelix] (Ac-[d2Nal][dPhe(4-Cl)][d3Pal]SY[dCit]LRP[dA]-NH2), which “premature LH surges during stimulated cycles” value [1] is on record?
Its value is “complete avoidance of premature LH surges”.

What about the “ovarian hyperstimulation syndrome (OHSS)” value ([2]; both groups, 30 patients) of the same compound?
The value was “No case”.

What about the “oocytes retrieved per cycle” value ([2]; hMG group) of the same compound?
Its value is 7.7±3.8.

What about the fertilization rate ([2]; hMG group) of the same compound?
The fertilization rate was 42%.

What about the “oocytes retrieved per cycle” value ([2]; recombinant FSH group) of the same compound?
Its value is 6.4±2.6.

And the fertilization rate ([2]; recombinant FSH group)?
Its fertilization rate is 53%.

And the “effect on normal, unstimulated follicular growth” value ([3]; multiple or single injections, extremely low dosage levels)?
Its value is “arrest of the normal, unstimulated follicular growth”.

What about the “responsiveness of the pituitary to LHRH or agonistic analogs” value ([3]; under treatment for LH-surge control) of the same compound?
The value was “preserved”.

What about the FSH secretion ([4]; FIG. 1) of the same compound?
The FSH secretion was “maintained at a natural level”.

And the individual estrogen development ([4]; FIG. 1)?
The individual estrogen development was “not affected”.

And the pregnancies obtained [4, 5]?
Its pregnancies obtained is 71.

And the pregnancy rate [4, 5]?
The pregnancy rate was 30%.

What about the “babies born by the end of May 1996” value ([4]; both regimens together) of the same compound?
The value was 25.

And the “babies born by the end of May 1996” value ([4]; following multiple doses)?
The value was 7.

What about the “babies born by the end of May 1996” value ([4]; following single/dual doses) of the same compound?
The value was 18.

What about the pregnancy rate ([4]; multiple dose regimen) of the same compound?
Its pregnancy rate is 28.4%.

And the pregnancies ([4]; multiple dose regimen, of 134 patients)?
Its pregnancies is 38.

And the “premature LH surge” value ([4]; multiple doses of 0.25 mg or higher or single dose of 3 mg or higher, s.c.)?
Its value is “No premature LH surge; also recorded: absolute prevention of any premature LH surge”.

What about the “min. effective dose (Dose/Day)” value [4, 6] of the same compound?
Its value is 0.25 min. effect, dose mg.

What about the “no effect dose (Dose/Day)” value [4, 6] of the same compound?
The value was 0.10 no effect. dose mg.

And the min. effective dose [4, 7]?
Its min. effective dose is 3 min. effective dose mg.

And the no effect dose [4, 7]?
Its no effect dose is 2 no effect. Dose mg.

And the “duration of effect to prevent a premature LH surge” value ([4]; single dose regimen)?
The value was “up to 6.5 days”.

What about the pregnancy rate ([4]; single/dual dosage regimen) of the same compound?
Its pregnancy rate is 31.7%.

And the pregnancies ([4]; single/dual dosage regimen, of 104 patients)?
The pregnancies was 33.
